Data from US20050106195A1, “N-octanoyl amino acid composition for slimming the human body” (priority 2003, published 2005).

Tested on: human adipocytes
Test: In vitro lipolytic activity: free fatty acid release from isolated human adipocytes in suspension
Assay type: cell-based
Conditions: 2 h at 37° C.; for Free fatty acid concentration: mean of five assays, control 11.54 ± 2.71
Description: This is because triglycerides are stored in the adipocytes and constitute the fat reserve. For this reserve to diminish, which is the desired aim when slimming products are used, the triglycerides must be hydrolysed so that the fatty acids can be removed from the cell. Hydrolysis of the triglycerides to nonesterified fatty acids and glycerol is called lipolysis.
The method described consists in incubating the products in the presence of human adipocytes in suspension, followed by the measurement of the nonesterified fatty acid level in the adipocyte incubation medium. The free fatty acid level thus reflects the hydrolysis of the triglycerides present in the adipocytes.
The test is carried out using human adipocytes isolated and prepared as a cellular suspension. The adipocytes are isolated from the subcutaneous abdominal adipose tissue recovered during plastic surgery operations (abdominal plastic surgery operations) performed on women. The cells are isolated from fresh tissue. The adipose tissue is isolated and dissociated by the action of a collagenase (SIGMA™, 1 mg/ml, 30 minutes at 37° C., gentle stirring). Collagenase digests the connective tissue present in the adipose tissue. After digestion, the cells are filtered and washed in an appropriate culture medium containing MEM medium free of phenol red, free of glutamine (SIGMA)+2.2 mg/ml of sodium bicarbonate (GIBCO)+50 IU of penicillin (BIOWHITTAKER™)+50 μg/ml of streptomycin (BIOWHITTAKER™)+1% (v/v) of L-glutamine (BIOWHITTAKER™)+0.5% of lipid-free serum albumin (SIGMA™). The adipocyte suspension is used immediately after its preparation.
The test products are diluted in the adipocyte culture medium. They are incubated with the cells in suspension for two hours at 37° C. (250 μl of product+250 μl of adipocyte suspension).
After the incubation, the cell lysis is checked visually by the presence of a lipid layer at the surface of the cellular suspension. The supernatant media are collected. The free fatty acids are assayed by spectrophotometry using a commercial kit (NEFA™ C kit, WAKO), with reference to a fatty acid calibration series. The lypolytic activity of the products is evaluated relative to a control group incubated in the presence of adipocytes and in the absence of product. The reactivity of the adipocytes is systematically checked for the measurement of the lipolytic activity of the reference products, caffeine (1,3,7-trimethyl-xanthine) and theophylline (1,3-dimethyl-2,6-dihydroxy-purine). Five assays are performed for each of the test products. The lipolytic activity of LIPACIDE™ C8G, which contains active material 100% N-octanoylglycine, was thus evaluated.

[1] = incubation concentration 0.0019 wt %/volume
[2] = incubation concentration 0.0001 wt %/volume
[3] = incubation concentration 0.0005 wt %/volume
[4] = incubation concentration 0.0010 wt %/volume

SMILES: Cn1c(=O)c2c(ncn2C)n(C)c1=O [Caffeine, 1,3,7-trimethyl-xanthine, reference compound]
- Lipolytic activity (compared with the control = 100) [1]: 131
- Free fatty acid concentration [1]: 15.10 ± 4.11 µM

SMILES: CCCCCCCC(=O)NCC(=O)O [LIPACIDE ™ C8G, N-octanoylglycine]
- Lipolytic activity (compared with the control = 100) [2]: 206
- Free fatty acid concentration [2]: 23.83 ± 5.11 µM
- Lipolytic activity (compared with the control = 100) [3]: 219
- Free fatty acid concentration [3]: 25.30 ± 2.70 µM
- Lipolytic activity (compared with the control = 100) [4]: 223
- Free fatty acid concentration [4]: 25.75 ± 0.86 µM
